According to publication PMC8954350, “Non-Canonical Cannabinoid Receptors with Distinct Binding and Signaling Properties in Prostate and Other Cancer Cell Types Mediate Cell Death” (International Journal of Molecular Sciences, 2022):

Key:
[1] = tested on: CBRs expressed in DU-145 membranes; assay type: biochemical, human; details: 10 μM
Procedure: (§1) Non-specific binding was defined as radioactivity remaining in the presence of 10 μM of non-radioactive GTPγS and subtracted from total binding to determine specific [^35S]GTPγS binding. All binding reactions were conducted in triplicate, in a final volume of 1 mL, and, following mixing, were incubated for 30 min at 30 °C. After incubation, reactions were terminated by rapid vacuum filtration through Whatman GF/B glass fiber filters (Brandel; Gaithersburg, MD, USA), followed by three washes of 4 mls of ice-cold filtration buffer (50 mM Tris, pH 7.4, and 0.05% bovine serum albumin). Samples were punched out from filter papers into scintillation vials, to which 4 mls of ScintiverseTM-BDR cocktail scintillation fluid (Fisher Scientific; Hampton, NH, USA) was added. Filters were incubated at room temperature for 24 h in scintillation fluid, vortexed, and radioactivity (measured as DPMs) was determined via a liquid scintillation spectrophotometer (Tri Carb 2100 TR Liquid Scintillation Analyzer, Packard Instruments, Meriden, CT, USA).

[2] = tested on: CBRs expressed in PC-3 membranes; experiment: [^35S]GTPγS binding, PC-3 membranes; assay type: biochemical, human; details: 10 μM
Procedure: as §1, with “[^35S]GTPγS binding experiments were conducted to examine G protein modulation by cannabinoids in prostate cancer cell lines DU-145 and PC-3, as detailed previously. Briefly, CHO-hCB2 (50 μg), PC3 (100 μg), or DU-145 (100 μg) membrane homogenates were incubated with a single receptor-saturating concentration (10^−5 M) of cannabinoid ligands to be examined and 0.1 nM [^35S]GTPγS in incubation buffer (20 mM HEPES buffer, pH 7.4, 10 μM GDP, 100 mM NaCl, 0.1% bovine serum albumin, and 10 mM MgCl2). Non-specific” for “Non-specific”

[3] = tested on: CBRs expressed in PC-3 membranes; experiment: [^3H]WIN-55,212-2 competitive binding screen, PC-3 membranes; design: species or system human; details: 1 μM ligand, 1 nM radioligand, PC-3 membranes
Procedure: as §1, with “The assay” for “Non-specific binding”, “conducted” for “defined”, “previously detailed. […]” for “radioactivity remaining in the presence of 10 μM of non-radioactive GTPγS and subtracted from total binding to determine specific [^35S]GTPγS binding.”, “20” for “30”, “in a 37 °C water bath to achieve equilibrium.” for “at 30 °C.”, “quantified” for “determined”
(§2) These experiments were conducted to screen well-characterized cannabinoid ligands with high affinity for canonical CB1 and/or CB2Rs for binding to CBRs expressed in prostate cancer cells lines, as detailed in [33]. […] All binding reactions were conducted in triplicate, in a final volume of 1 mL, and, following mixing, were incubated for 20 min in a 37 °C water bath to achieve equilibrium. After incubation, reactions were terminated by rapid vacuum filtration and processed for radioactivity, as detailed in Section 4.5.1.

[4] = tested on: CBRs expressed in DU-145 membranes; assay type: binding, human
Procedure: as §1, with “The assay” for “Non-specific binding”, “conducted” for “defined”, “previously detailed. […]” for “radioactivity remaining in the presence of 10 μM of non-radioactive GTPγS and subtracted from total binding to determine specific [^35S]GTPγS binding.”, “20” for “30”, “in a 37 °C water bath to achieve equilibrium.” for “at 30 °C.”, “quantified” for “determined”
as §2

DU-145 cells [5] = experiment: Mitochondrial membrane potential (JC-1 staining), DU-145 cells; assay type: cell-based, human; details: 10 μM ligand co-incubated, 24 h
DU-145 cells [6] = experiment: ATP-dependent cell viability, DU-145 cells; assay type: cell-based, human; details: co-incubation with 10 μM ligand, 24 h
Procedure: Adenosine 5′-triphosphate (ATP) levels were quantified as a measure of DU-145 cell viability in response to cannabinoid treatement using an ATP-luciferase-based bioluminescence assay kit (CellTiter-Glo®, Sigma, MO, USA) and BioTek microplate reader (Winooski, VT, USA). DU-145 cells were seeded at a density of 8 × 10^3 cells/well in a 96-well plate and incubated for 24 h at 37 °C with 5% CO2. The next day, cells were treated with either vehicle or experimental drugs (10 or 50 μM) and incubated for another 24 h at 37 °C with 5% CO2. ATP levels were assessed following incubation by interpolation from an ATP standard curve according to the manufacturer’s protocol, as described previously.

SMILES: COc1ccc2c(c1)CCC(c1ccccc1)=C2c1ccc(OCCN2CCCC2)cc1 [nafoxidine]
- modulation of [^35S]GTPγS binding [1]: had no effect on G protein activity
- modulation of [^35S]GTPγS binding [2]: had no effect on G protein activity
- displacement of [^3H]WIN-55,212-2 [3]: produced significant (but less) displacement
- displacement of [^3H]WIN-55,212-2 [4]: produced significant (but less) displacement

SMILES: Cc1c(C(=O)NN2CCCCC2)nn(-c2ccc(Cl)cc2Cl)c1-c1ccc(I)cc1 [AM-251]
- MMP on co-incubation with GW-405833 (10 μM) (DU-145 cells [5]): MMP was not significantly reduced from vehicle-treated levels
- attenuation of GW-405833 (50 μM)-induced reduction in ATP concentrations (DU-145 cells [6]): significantly attenuated reductions in ATP concentrations produced by GW-405833
